What all share (format): cell-based, human
The test system of series [1] is MCF7 cells. The experiment in a line: Colonogenic assay and western blotting with 2.5 Gy radiation, MCF7. The settings on record: for sensitivity to radiation therapy (colony number): MCF7, 2.5 Gy, compared to DMSO, FIG. 10A/10B. Here is the method:
A colonogenic assay was performed in order to confirm whether the sensitivity to the radiation treatment effect can be increased when MCF7 cancer cell line was treated with MKI-1. First, breast cancer cells MCF7 (500-1000 cells) were placed in a 60-mm tissue culture medium on a 60 mm culture plate, and treated with MASTL kinase inhibitors (AT13148, MKI-1 and GKI-1), respectively, and then was treated with 2.5 Gy radiation by Biobeam GM8000 (Gamma-Gamma-Service Medical GmbH, Leipzig, Germany) and the control group was not treated with radiation. After 10 to 14 days, the cell colonies were fixed with methanol and stained with 0.5% crystal violet, and the results were shown in FIG. 10A, and the number of colonies shown in the above results was quantified using Image J software to show in 10B, and then western blotting was performed and the results thereof were shown in FIG. 10C.
(A western blot detects proteins with antibodies after separation by electrophoresis.)

The next series relates to MCF10A cells. The experiment in a line: WST-8 cell viability assay, normal cell line MCF10A. Conditions: for cell viability, normal cell line MCF10A: 3.70, 11.11, 33.33 and 100 μM, FIG. 6. The method, then: (§1) In addition, the cell line in this experiment was distributed from ATCC (American Type Culture Collection; Manassas, VA). Human-derived tumor cell lines, breast cancer cell lines MCF7 and T47D was cultured in DMEM medium containing 10% fetal bovine serum (FBS; HyClone, South Logan, UT) and 1% penicillin/streptomycin (Corning, NY, USA) at 37° C. and 5% CO2, and the BT549 breast cancer cell line was cultured in RPMI 1640 (Welgene, Daegu, Korea) as a medium used under the same conditions. Human-derived normal cell line MCF10A was cultured in DMEM/F12 (Invitrogen) medium containing 5% horse serum (Invitrogen), 1% penicillin/streptomycin, 20 ng/ml EGF (Peprotech, London, UK), […] (Sigma-Aldrich, MO, USA), 100 ng/ml cholera toxin (Cholera Toxin, Sigma-Aldrich) and 10 μg Insulin (Sigma-Aldrich) at 37° C. and 5% CO2.
(§2) Briefly, MCF7 and MCF10A cells were seeded into 96-well plates, incubated for 24 hours, and then was treated with 42 inhibitor candidates. Among the compounds, the multi-AGC kinase inhibitor AT13148 was used as a positive control. Thereafter, the absorbance was measured at 450 nm using a Versamax microplate reader (Molecular Devices, CA, USA), and the results of the experiment were shown in FIG. 1A.
(§3) In order to confirm whether the selected MKI-1 can kill only cancer cells, an experiment was performed by treating with MKI-1 and measuring whether the cell viability of breast cancer cell lines and normal cell lines was changed. WST-8 analysis (Cyto X™ cell viability assay kit, LPS solution, Daejeon, Korea) was performed according to the manufacturer's protocol. Cancer cells MCF7 and BT549 and normal cell line MCF10A cells were inoculated into a 96-well plate, cultured for 24 hours, and then treated with MASTL kinase inhibitors at various concentrations (3.70, 11.11, 33.33 and 100 μM). Thereafter, the absorbance was measured at 450 nm using a Versamax micro plate reader (Molecular Devices, CA, USA), and the results were shown in FIG. 6.
(Tetrazolium assays rely on reduction of a dye to a coloured formazan, in cell work by metabolically active cells.)

Series [2] concerns MCF7 cells. The experiment in a line: Colony formation analysis. The settings on record: MCF7, cultured 15 days, compared to DMSO, FIG. 7. Here is the method: Colony formation analysis was performed to confirm whether the selected MKI-1 can effectively kill cancer cells. First, breast cancer cells MCF7 (500-1000 cells) were cultured in a 60 mm culture plate, and after 24 hours, it was treated with MASTL kinase inhibitors (AT13148, MKI-1 and GKI-1), respectively and cultured for 15 days. Cells were fixed and stained with […] to which methanol was added to quantify the number of colonies, which was shown in FIG. 7.

Series [3] relates to CD44^high/CD24^low MCF7 cells. The experiment in a line: Colonogenic assay and western blotting with 2.5 Gy radiation, radioresistant CD44high/CD24low MCF7. Conditions: for sensitivity to radiation therapy (colony number): CD44high/CD24low MCF7, 2.5 Gy, compared to DMSO, FIG. 11A/11B. Here is the method:
A colonogenic assay was performed in order to confirm whether the sensitivity to the radiation treatment effect was increased even in the CD44^high/CD24^low MCF7 cancer cell line having a radioresistant phenotype, when it was treated with MKI-1. First, breast cancer cells CD44^high/CD24^low MCF7 (500-1000 cells) were placed in a 60-mm tissue culture medium on a 60 mm culture plate, and treated with MASTL kinase inhibitors (AT13148, MKI-1 and GKI-1), respectively, and then was treated with 2.5 Gy radiation by Biobeam GM8000 (Gamma-Gamma-Service Medical GmbH, Leipzig, Germany) and the control group was not treated with radiation. After 10 to 14 days, the cell colonies were fixed with methanol and stained with 0.5% crystal violet, and the results were shown in FIG. 11A, and the number of colonies shown in the above results was quantified using Image J software to show in 11B, and then western blotting was performed and the results thereof were shown in FIG. 11C.

The test system of series [4] is MCF7 cells. As to the kind of experiment: Tumorsphere formation assay. Conditions: MCF7, cultured 15 days, compared to DMSO, FIG. 8. Here is the method: A tumorsphere formation assay was performed in order to determine whether the selected MKI-1 can effectively reduce the formation of tumorsphere in cancer cells, Breast cancer cells MCF7 (2500-10000 cells) was suspended in serum-free DMEM/F12 (weIGENE) containing 1% penicillin, B-27 (1:50; invitrogen), 20 ng/mL epidermal cell growth factor (R&D Systems) and 20 ng/mL fibroblast growth factor (R&D Systems) and cultured on plates with low adhesion rate. After 24 hours, the cells were treated with MASTL kinase inhibitors (AT13148, MKI-1 and GKI-1), respectively, and cultured for 15 days, and then the diameter of the tumorsphere was measured and quantified, which was shown in FIG. 8.

Series [5] relates to MCF7 cells. As to the kind of experiment: WST-8 cell viability assay, breast cancer cell line MCF7. Conditions: for cell viability, MCF7: 3.70, 11.11, 33.33 and 100 μM. Here is the method: as §1, §2, §3
The mark [6] stands for this setting: MCF7, after radiation treatment, FIG. 10C.
Where [7] appears, read: screen of 42 single compounds, FIG. 1A.
Setting [8] is: CD44high/CD24low MCF7, after radiation treatment, FIG. 11C.

With `Clc1ccc(Nc2cccc(-c3cn[nH]c3)c2)cc1` [GKI-1, N-(4-chlorophenyl)-3-(1H-pyrazol-4-yl)aniline, reference compound], the “sensitivity to radiation therapy (colony number)” value (in the series with MCF7 cells [1]; in series [3]) was “no synergistic effect” throughout. Besides, the “cell viability, normal cell line MCF10A” value in the series with MCF10A cells was “hardly decrease cell viability”. In addition, the “number of cancer cell colonies” value with MCF7 cells [2] was “hardly decreased”. Also, the tumorsphere diameter entry in the series with MCF7 cells [4] was “hardly decreased”. Moreover, the “cell viability, MCF7” value in the series on MCF7 cells [5] (FIG. 6) is on record as “decreases cell viability in a dose-dependent manner”.

With `O=C(Nc1nc2ccccc2[nH]1)c1cccc(-n2cccc2)c1` [MKI-1, N-1H-benzimidazol-2-yl-3-(1H-pyrrol-1-yl) benzamide], the results for the “sensitivity to radiation therapy (colony number)” value (in the series with MCF7 cells [1]; in series [3]) were “significantly higher” and “significant increase in sensitivity to radiation treatment”, respectively. Moreover, the “expression levels of cleaved-PARP and phosphorylated Chk2” value (in the series on MCF7 cells [1] (setting [6]); in series [3] (setting [8])) was “increased” each time. Further, the “expression levels of procaspase-2” value (in the series with MCF7 cells [1] (setting [6]); in series [3] (setting [8])) was “decreased” throughout. Besides, the “cell viability, normal cell line MCF10A” value in the series with MCF10A cells is “hardly decrease cell viability”. Moreover, the “cell viability of normal cell line (MCF10A)” value in the series on MCF10A cells (setting [7]) was “maintained as high as that of the control group DMSO”. Further, the “number of cancer cell colonies” value with MCF7 cells [2] is given as “significantly reduced”. In the series with MCF7 cells [4], the tumorsphere diameter entry is “significantly decreased”. The “survival rate of cancer cells, MCF7” value in the series on MCF7 cells [5] (33.33 μM or more, FIG. 6) is reported as “significantly reduced”. Further, in the series on MCF7 cells [5] (FIG. 6), the “cell viability, MCF7” value was “decreases cell viability in a dose-dependent manner”. Also, the “growth of the treated cancer cell line (MCF7)” value in the series on MCF7 cells [5] (setting [7]) is given as “significantly inhibited”.

These data come from US12029730B2, “Pharmaceutical composition for preventing or treating cancer, containing N-1H-benzimidazol-2-yl-3-(1H-pyrrole-1-yl)benzamide as active ingredient” (KOREA INSTITUTE OF RADIOLOGICAL & MEDICAL SCIENCES, priority 2018, dated 2024).
